# Laboratory results reported in patent publication US20180110742A1, “NMDA ANTAGONISTS FOR THE TREATMENT OF MENTAL DISORDERS WITH OCCURRENCE OF […]/OR IMPULSIVE BEHAVIOR” (ICM (INSTITUT DU CERVEAU ET DE LA MOELLE EPINIERE), priority 2015, published 2018).
# Experiments:
# [1] = system: supplementary eye field (SEF) neurons; assay: Single-neuron recordings of saccade-related and fixation neurons during the saccade task; assay type: in vivo, rhesus monkey; details: 0.25 mg/kg i.m.; for average neuronal activity of fixation units/neurons: delay and saccadic period, 0.25 mg/kg
# Source text: FIG. 9 is a graph showing the average neuronal activity (spike density) of 30 movement-related supplementary eye field (SEF) neurons during fixation (negative time), delay (between the two vertical dashed lines) and after saccade appearance (after the second dashed lined). Group data. A: delay duration: 400 ms. B: delay duration: 900 ms. C: delay duration: 1400 ms. D: delay duration: 1900 ms. […] This can be associated with the decrease of premature saccades.
# FIG. 10 is a graph showing the average neuronal activity of “fixation” units during fixation, delay and saccadic period. Group data. A: delay duration: 400 ms. B: delay duration: 900 ms. C: delay duration: 1400 ms. D: delay duration: 1900 ms. […] This could be related to the enhanced inhibition capacity and reduction of impulsive behavior observed.
# Neuronal activity of two animals was recorded on neurons with phasic discharge during the saccade (saccadic-relayed neurons, FIG. 9) and neurons with tonic activity when the eye is immobile (fixation neurons, FIG. 10). Average activity of 30 neurons is shown in the control condition (no ketamine) and after injection of 0.25 mg/kg ketamine i.m.
# One male and one female rhesus monkey were used in this study. All procedures were approved by the Institutional Animal Care and Use Committee and were in compliance with the guidelines set forth in the United States Public Health Service Guide for the Care and Use of Laboratory Animals.
# A celux recording chamber (Crist Instruments, Hagerstown, Md.) was positioned at 24 mm anterior in Horsley-Clark stereotaxic coordinates and centered on the midline of the brain in both monkeys. At the completion of the surgeries, animals were returned to their home cages. Antibiotics and analgesics were administered as needed during the recovery period under the direction of a veterinarian.
# The monkeys were seated in a primate chair with their head restrained for the duration of the testing sessions. They were trained to execute the behavioral task described above for liquid reward and were allowed to work to satiation. Records of each animal's weight and health status were kept, and supplemental water was given as necessary. The monkeys had their heads immobilized and were trained to pursue spots of light projected on a tangent screen in front of them.
# To record neuronal activity, a single tungsten microelectrode (FHC, Bowdoinham, Me.) of approximately 6 MΩ impedance at 1 kHz was lowered into the cortex through the dura using a Narishige microdrive. The position of the electrode was determined using a grid system (Crist et al., 1988). Action potentials of single units were isolated using an on-line spike-sorting system that uses a template-matching algorithm (Plexon Inc). A pulse was generated each time an action potential was detected and stored with a 1 ms resolution.
# To analyze the time course of neuronal activity, spike trains were convolved with a Gaussian probability density in steps of 1 ms to generate the spike-density function (Richmond et al., 1987). The SD of the Gaussian function was set to 20 ms. The average spike density in each experimental condition was computed from all trials in which subjects pursued the target until the end of its trajectory.
# [2] = higher doses, e.g. 0.6 mg/kg; cited from earlier work
# rhesus monkeys = assay: Delayed saccade oculomotor paradigm (inhibition of premature saccades) after i.m. ketamine or saline; assay type: in vivo, rhesus monkey
# Source text: FIG. 2 is a diagram showing the sequence of events. The trial started with the appearance of a fixation cross for a randomized duration followed by the appearance of two empty ‘boxes’, one at the center of the screen and at a 9-deg eccentric position. After the appearance of the two boxes, a target was flashed in the central one for 50 milliseconds. Extinction of the central target marked the beginning of the delay period that could last either 400, 900, 1400 or 1900 ms. At the end of the delay period, a target appeared for 50 ms in the eccentric box and the subject had to make a saccade to the eccentric box within a 400 ms grace period.
# The experimental paradigm was designed to create a conflict between the urge to make a saccade to the peripheral box and the necessity to maintain fixation until the eccentric target appeared (FIG. 2). This required a strong inhibition of premature saccades before the appearance of the eccentric target.
# A total of 14104 saccades were analyzed in the three monkeys of the present study (L, S, Y). […] Positive values represent saccades occurring after target onset. We classified saccades as visually-guided for latencies longer than 100 ms. Latencies shorter than 100 ms represent premature (anticipatory) saccades. It can be observed that in the control condition (dashed curve on FIG. 3A), average saccadic latencies tended on average to decrease with increasing delay duration, more premature saccades occurring during long delays. […] However, a significant interaction between injected product (placebo or ketamine) and delay duration was found (F3; 6.012=8.195; P=0.015). […] Saccades in short delay trials (400 or 900 ms delays) were less affected than saccades when the delay was longer (1400 or 1900 ms). This influence of ketamine on movement latency was reproducible between monkeys.
# Three monkeys participated in the present study (referred to as L, S, Y). Apparatus
# Subjects sat in darkness, facing a CRT screen, which presented stimuli at a frequency of 60 Hz. An EyeLink 1000 infrared eye tracking system (SR Research, Mississauga, Ontario) was used to record movements of the right eye at 1 KHz. All experiments were run with homemade stimulus generation software based on a real time Linux kernel (Xenomaï). Stimulus display and oculomotor data collection were synchronized on a frame-by-frame basis. Saccades were detected offline in MATLAB (MathWorks, Natic, Mass.) with a velocity threshold of 30 deg/sec.
# Each trial started with an initial fixation period (referred to as ‘initial fixation’), with a small cross (0.7 deg) appearing on the CRT screen for a random duration (850±100 ms; see ‘X’ on FIG. 1). At the end of this random delay, two empty square ‘boxes’ appeared on the screen (1.4×1.4 deg), one in the center of the screen and one 9 deg eccentric, randomly to the right or to the left. […] Afterwards, a square target (1.4×1.4 deg) was flashed in the central box for 50 ms. Extinction of the initial target indicated to subjects the beginning of the delay period. Subjects were required to hold on fixation of the central box until another target (1.4×1.4 deg) was briefly presented for 50 ms in the eccentric box. In the variable fore period design, the delay period could take one of 4 different values with the same probability: 400 ms, 900 ms, 1400 ms and 1900 ms. In order to receive reward, subjects had to maintain fixation of the central box and wait for the appearance of the eccentric target. This required a strong inhibition of early saccades before the appearance of the eccentric target. Early saccades were not rewarded. This paradigm was designed to test inhibition during the delay period.
# Each experimental session started with a block of 200 trials before injection to measure the baseline saccadic latency on a day-by-day basis. On a randomly selected day ketamine (0.250 mg/kg) was injected i.m. or a placebo saline solution (NaCl 0.9%) of the same volume (0.3 ml). […]
# [3] = Total of monkeys L, S, Y, 0.25 mg/kg i.m.
structure (smiles),measurement,setting,value
CNC1(c2ccccc2Cl)CCCCC1=O (stereo not drawn) [ketamine],activity of premotor saccadic neurons,[1]; two animals,decreases the activity of premotor saccadic neurons
same,average neuronal activity of movement-related SEF neurons after target appearance,[1]; 30 neurons,reduces activity after target appearance
same,average neuronal activity (spike density) of movement-related SEF neurons during the delay period,"[1]; 30 neurons, delays 400-1900 ms",reduces neuronal activity during the delay period
same,average neuronal activity of fixation units/neurons,[1],increases the activity of fixation neurons
same,average neuronal activity of fixation units/neurons,[1]; listed as Ketamine,"increased the fixation, delay and initial saccadic period"
same,spontaneous nystagmus or centripetal drift of the eye,[2],could be observed with higher doses
same,spontaneous nystagmus or centripetal drift of the eye,rhesus monkeys; 0.25 mg/kg,did not evoke spontaneous nystagmus or centripetal drift of the eye
same,latency variance,"rhesus monkeys; 0.25 mg/kg i.m., as a function of delay duration",latency variance decreased
same,reduction of premature saccades by delay duration,"rhesus monkeys; 0.25 mg/kg i.m., delay durations 400-1900 ms",particularly strong for long delay durations (1400 ms and 1900 ms)
same,saccadic latency as a function of delay duration,"rhesus monkeys; 0.25 mg/kg i.m., delays 400, 900, 1400, 1900 ms, group data",prolonged saccadic latencies differently with increasing delay duration
same,saccadic latency (all saccades),"rhesus monkeys; 0.25 mg/kg i.m., group data of three monkeys, two blocks of trials following injection",altered saccadic latency
same,number of premature saccades,"rhesus monkeys; 0.25 mg/kg i.m., group data, vs saline",strongly and significantly reduced
same,average premature saccade latency,"rhesus monkeys; 0.25 mg/kg i.m., saccades with latency <100 ms, group data",not affected
same,Premature saccades (number),"rhesus monkeys; Monkey L, 0.25 mg/kg i.m.",408
same,Premature saccades (percentage of total),"rhesus monkeys; Monkey L, 0.25 mg/kg i.m.",(21%)
same,Visually guided saccades (number),"rhesus monkeys; Monkey L, 0.25 mg/kg i.m.",1520
same,Visually guided saccades (percentage of total),"rhesus monkeys; Monkey L, 0.25 mg/kg i.m.",(79%
same,saccade amplitude,"rhesus monkeys; Monkey L, 0.25 mg/kg i.m., control 5.7±0.05 deg",5.2±0.05 deg
same,decrease of the proportion of valid trials,"rhesus monkeys; Monkey L, after ketamine injection 0.25 mg/kg i.m.",~5%
same,Premature saccades (number),"rhesus monkeys; Monkey S, 0.25 mg/kg i.m.",21
same,Premature saccades (percentage of total),"rhesus monkeys; Monkey S, 0.25 mg/kg i.m.",(7%)
same,Visually guided saccades (number),"rhesus monkeys; Monkey S, 0.25 mg/kg i.m.",2939
same,Visually guided saccades (percentage of total),"rhesus monkeys; Monkey S, 0.25 mg/kg i.m.",(93%)
same,increase of the proportion of valid trials,"rhesus monkeys; Monkey S, after ketamine injection 0.25 mg/kg i.m.",~10%
same,Premature saccades (number),"rhesus monkeys; Monkey Y, 0.25 mg/kg i.m.",150
same,Premature saccades (percentage of total),"rhesus monkeys; Monkey Y, 0.25 mg/kg i.m.",(6%)
same,Visually guided saccades (number),"rhesus monkeys; Monkey Y, 0.25 mg/kg i.m.",2537
same,Visually guided saccades (percentage of total),"rhesus monkeys; Monkey Y, 0.25 mg/kg i.m.",(94%)
same,saccade amplitude,"rhesus monkeys; Monkey Y, 0.25 mg/kg i.m., control 5.7±0.03 deg",6.2±0.04 deg
same,proportion of valid trials,"rhesus monkeys; Monkey Y, after ketamine injection 0.25 mg/kg i.m.",unchanged
same,premature saccades after single injection (saccadic latency vs trial number),"rhesus monkeys; Monkey Y, single injection",sharp decrease of premature saccades
same,trials after injection until the number of early anticipatory saccades was strongly reduced,"rhesus monkeys; Monkey Y, single injection 0.25 mg/kg i.m.",Approximately 100 trials
same,return of premature saccades frequency to control levels,"rhesus monkeys; Monkey Y, single injection 0.25 mg/kg i.m., blocks of 200 trials",Only during the third block following injection
same,trials until cumulated sums of latencies of control and ketamine diverged,"rhesus monkeys; Monkeys Y and L, 13 injections, 0.25 mg/kg i.m.",approximately 75 trials
same,Premature saccades (number),rhesus monkeys; [3],579
same,Visually guided saccades (number),rhesus monkeys; [3],6996
same,time for ketamine to affect saccade latency,"rhesus monkeys; after the onset of the second block of trials, single trial 3300 ms on average",approximately 4 minutes
same,average difference in the latency of visually-guided saccade between conditions,"rhesus monkeys; ketamine 0.25 mg/kg i.m. vs saline, saccades with latency >100 ms, group data",approx. 10 ms
same,"saccade amplitude, group data","rhesus monkeys; monkeys L and Y, 0.25 mg/kg i.m., 0.25 mg/kg",did not reduce saccade amplitude
same,"saccade amplitude, group data","rhesus monkeys; monkeys L and Y, 0.25 mg/kg i.m., listed as Ketamine, 0.25 mg/kg",modestly reduced saccadic amplitude
same,saccade amplitude changes,"rhesus monkeys; monkeys L and Y, ketamine vs control",~10%
same,"proportion of valid trials, group level","rhesus monkeys; three monkeys, 0.25 mg/kg i.m.",did not statistically alter the proportion of valid trials
